Columns and labels:
Type in all cases: in vivo
Conditions in all cases: 250 g/ha, evaluated after 13 days
[1] = tested on: Amaranthus retoflexus (AMARE); test: Post-emergence Test, glasshouse, AMARE
Method in brief: (§1)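 Pots were sprayed 1 day after sowing (pre-emergence) or after 8 days' growth (post-emergence) at 250 g/ha, formulated in acetone/water 50:50 with 0.5% Tween 20. Glasshouse conditions were 24/16 °C, 14 h light, 65% humidity. Damage was scored after 13 days on a 1–5 scale (5 = 81–100%).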

ABUTH [2] = test: Post-emergence Test, glasshouse, ABUTH
Method in brief: as §1

Setaria faberi (SETFA) [3] = test: Post-emergence Test, glasshouse, SETFA
Method in brief: as §1

[4] = tested on: Echinochloa crus-galli (ECHCG); test: Post-emergence Test, glasshouse, ECHCG
Method in brief: as §1

IPOHE [5] = test: Post-emergence Test, glasshouse, IPOHE
Method in brief: as §1

[6] = tested on: Amaranthus retoflexus (AMARE); test: Pre-emergence Test, glasshouse, AMARE
Method in brief: as §1

ABUTH [7] = test: Pre-emergence Test, glasshouse, ABUTH
Method in brief: as §1

Setaria faberi (SETFA) [8] = test: Pre-emergence Test, glasshouse, SETFA
Method in brief: as §1

[9] = tested on: Echinochloa crus-galli (ECHCG); test: Pre-emergence Test, glasshouse, ECHCG
Method in brief: as §1

IPOHE [10] = test: Pre-emergence Test, glasshouse, IPOHE
Method in brief: as §1

Row | SMILES | percentage damage caused to the plant, five-point scale, AMARE [1] | percentage damage caused to the plant, five-point scale, ABUTH (ABUTH [2]) | percentage damage caused to the plant, five-point scale, SETFA (Setaria faberi (SETFA) [3]) | percentage damage caused to the plant, five-point scale, ECHCG [4] | percentage damage caused to the plant, five-point scale, IPOHE (IPOHE [5]) | percentage damage caused to the plant, five-point scale, AMARE [6] | percentage damage caused to the plant, five-point scale, ABUTH (ABUTH [7]) | percentage damage caused to the plant, five-point scale, SETFA (Setaria faberi (SETFA) [8]) | percentage damage caused to the plant, five-point scale, ECHCG [9] | percentage damage caused to the plant, five-point scale, IPOHE (IPOHE [10])
1 | FC(F)(F)OCCn1nc(Cl)c2cccc(Oc3ncc(Cl)cn3)c21 [Compound 1.052] | 5 (5=81-100%) | 5 (5=81-100%) | 3 (3=41-60%) | 4 (4=61-80%) | 3 (3=41-60%) | 5 (5=81-100%) | 3 (3=41-60%) | 5 (5=81-100%) | 4 (4=61-80%) | 1 (1=0-20%)
2 | C=CCCn1nc(Cl)c2cccc(Oc3ncc(Cl)cn3)c21 [Compound 1.054] | 4 (4=61-80%) | 4 (4=61-80%) | 2 (2=21-40%) | 3 (3=41-60%) | 2 (2=21-40%) | 4 (4=61-80%) | 1 (1=0-20%) | 5 (5=81-100%) | 4 (4=61-80%) | 1 (1=0-20%)
3 | CCCCCn1nc(Cl)c2cccc(Oc3ncc(Cl)cn3)c21 [Compound 1.055] | 4 (4=61-80%) | 3 (3=41-60%) | 3 (3=41-60%) | 3 (3=41-60%) | 2 (2=21-40%) | 4 (4=61-80%) | 1 (1=0-20%) | 4 (4=61-80%) | 4 (4=61-80%) | 1 (1=0-20%)
4 | CC(C)CCn1nc(Cl)c2cccc(Oc3ncc(Cl)cn3)c21 [Compound 1.056] | 4 (4=61-80%) | 3 (3=41-60%) | 2 (2=21-40%) | 2 (2=21-40%) | 3 (3=41-60%) | 4 (4=61-80%) | 1 (1=0-20%) | 4 (4=61-80%) | 3 (3=41-60%) | 1 (1=0-20%)
5 | CC(C)Cn1nc(Cl)c2cccc(Oc3ncc(Cl)cn3)c21 [Compound 1.057] | 3 (3=41-60%) | 2 (2=21-40%) | 1 (1=0-20%) | 1 (1=0-20%) | 1 (1=0-20%) | 2 (2=21-40%) | 2 (2=21-40%) | 4 (4=61-80%) | 2 (2=21-40%) | 1 (1=0-20%)
6 | CCCCCCn1nc(Cl)c2cccc(Oc3ncc(Cl)cn3)c21 [Compound 1.058] | 4 (4=61-80%) | 3 (3=41-60%) | 2 (2=21-40%) | 3 (3=41-60%) | 2 (2=21-40%) | 2 (2=21-40%) | 2 (2=21-40%) | 3 (3=41-60%) | 3 (3=41-60%) | 1 (1=0-20%)

Reference: patent US20230002357A1, “7-PYRIMIDINE-2-YL-OXY-INDAZOLE DERIVATIVES AND THEIR USE AS HERBICIDES” (SYNGENTA CROP PROTECTION AG, priority 2019, published 2023)
